{"source": "patent US12370203B2", "about": "“Pharmaceutical compositions and methods of making on demand solid dosage formulations” (Eastern Virginia Medical School, priority 2018, dated 2025)", "key": {"[1]": {"tested_on": "HIV", "test": "Cervical vaginal (CV) tissue explant HIV infection (p24 production, AUC)", "assay_type": "cell-based", "from_the_text": "FIGS. 1A, 1B and 1C show EVG dose response plots on p24 production."}, "[2]": {"test": "EVG concentration in CV tissues", "assay_type": "in vitro ADME", "procedure": "FIG. 2 is a graph showing EVG concentrations in infected vs. not infected CV tissues. Median concentrations and ranges (min and max) are shown. PA=Protein adjusted. […] Based on the data, it can be extrapolated that EVG tissue concentrations of >1000 ng/g provided 100% HIV prophylaxis. (FIG. 2)."}, "[3]": {"tested_on": "HSV", "test": "Anti-HSV activity of tenofovir prodrugs", "assay_type": "cell-based"}}, "note": "Counter-ions that a name gives are not always drawn.", "data": [{"molecule": "COc1cc2c(cc1Cc1cccc(Cl)c1F)c(=O)c(C(=O)O)cn2[C@H](CO)C(C)C", "note": "[EVG, elvitegravir]", "values": [{"measurement": "% protection of mean AUC versus HIV control", "setting": "[1]; Co-exposure, virus and EVG added together, EVG 0.1 μg/ml", "value": 97.56, "unit": "%"}, {"measurement": "% protection of mean AUC versus HIV control", "setting": "[1]; Co-exposure, virus and EVG added together, EVG 1 μg/ml", "value": 100, "unit": "%"}, {"measurement": "% protection of mean AUC versus HIV control", "setting": "[1]; Post-exposure 4 h, EVG 0.1 μg/ml", "value": 86, "unit": "%"}, {"measurement": "% protection of mean AUC versus HIV control", "setting": "[1]; Post-exposure 4 h, EVG 1 μg/ml", "value": 99.56, "unit": "%"}, {"measurement": "% protection of mean AUC versus HIV control", "setting": "[1]; Post-exposure 4 h, EVG 10 μg/ml", "value": 100, "unit": "%"}, {"measurement": "% protection of mean AUC versus HIV control", "setting": "[1]; Post-exposure 9 h, EVG 0.1 μg/ml", "value": 85.85, "unit": "%"}, {"measurement": "% protection of mean AUC versus HIV control", "setting": "[1]; Post-exposure 9 h, EVG 1 μg/ml", "value": 100, "unit": "%"}, {"measurement": "% protection of mean AUC versus HIV control", "setting": "[1]; Post-exposure 9 h, EVG 10 μg/ml", "value": 100, "unit": "%"}, {"measurement": "% protection of mean AUC versus HIV control", "setting": "[1]; Post-exposure 14 h, EVG 10 μg/ml", "value": 100, "unit": "%"}, {"measurement": "% protection of mean AUC versus HIV control", "setting": "[1]; Post-exposure 24 h, EVG 10 μg/ml", "value": 100, "unit": "%"}, {"measurement": "% protection of mean AUC versus HIV control", "setting": "[1]; Pre-exposure 0 h, EVG 0.1 μg/ml", "value": 34.5, "unit": "%"}, {"measurement": "% protection of mean AUC versus HIV control", "setting": "[1]; Pre-exposure 0 h, EVG 1 μg/ml", "value": 99.97, "unit": "%"}, {"measurement": "% protection of mean AUC versus HIV control", "setting": "[1]; Pre-exposure 0 h, EVG 10 μg/ml", "value": 100, "unit": "%"}, {"measurement": "% protection of mean AUC versus HIV control", "setting": "[1]; Pre-exposure 7 h, EVG 0.1 μg/ml", "value": 21.53, "unit": "%"}, {"measurement": "% protection of mean AUC versus HIV control", "setting": "[1]; Pre-exposure 7 h, EVG 1 μg/ml", "value": 99.1, "unit": "%"}, {"measurement": "% protection of mean AUC versus HIV control", "setting": "[1]; Pre-exposure 7 h, EVG 10 μg/ml", "value": 100, "unit": "%"}, {"measurement": "% protection of mean AUC versus HIV control", "setting": "[1]; Pre-exposure 24 h, EVG 0.1 μg/ml", "value": 44.8, "unit": "%"}, {"measurement": "% protection of mean AUC versus HIV control", "setting": "[1]; Pre-exposure 24 h, EVG 1 μg/ml", "value": 99.51, "unit": "%"}, {"measurement": "% protection of mean AUC versus HIV control", "setting": "[1]; Pre-exposure 24 h, EVG 10 μg/ml", "value": 100, "unit": "%"}, {"measurement": "EVG tissue concentration that provided 100% HIV prophylaxis", "setting": "[2]; extrapolated from CV tissue data", "value": "> 1000", "unit": "ng/g"}, {"measurement": "median EVG concentration in CV tissues", "setting": "[2]; following 4 h of exposure to 1 μg/ml of EVG", "value": 1150, "unit": "ng/g"}, {"measurement": "median EVG concentration in CV tissues", "setting": "[2]; following 4 h of exposure to 10 μg/ml of EVG", "value": "13,381 ng/g"}]}, {"molecule": "CC(C)OC(=O)OCOP(=O)(CO[C@H](C)Cn1cnc2c(N)ncnc21)OCOC(=O)OC(C)C", "note": "[TDF, tenofovir disoproxil fumarate]", "values": [{"measurement": "activity against HSV", "setting": "[3]", "value": "improved activity against HSV"}]}, {"molecule": "C[C@H](Cn1cnc2c(N)ncnc21)OCP(=O)(O)O", "note": "[TFV, tenofovir]", "values": [{"measurement": "activity against HSV", "setting": "[3]", "value": "improved activity against HSV"}]}, {"molecule": "Nc1nc2c(ncn2COCCO)c(=O)[nH]1", "note": "[acyclovir (ACV), acyclovir]", "values": [{"measurement": "activity against HSV", "setting": "[3]", "value": "improved activity against HSV"}]}, {"molecule": "CC(C)OC(=O)[C@H](C)N[P@](=O)(CO[C@H](C)Cn1cnc2c(N)ncnc21)Oc1ccccc1", "note": "[TAF, tenofovir alafenamide fumarate]", "values": [{"measurement": "activity against HSV", "setting": "[3]", "value": "most potent"}]}]}
